The assay relates to MV-4-11 cells. Put plainly: Gene expression microarray analysis (Affymetrix PrimeView) and GSEA. Format: cell-based, human. The arrangement: RFU PODN (11730768_x_at) / Fold change /veh PODN (11730768_x_at) / RFU LINC00158 (11744669_a_at) / Fold change /veh LINC00158 (11744669_a_at) / RFU DUSP10 (11751237_a_at) / Fold change /veh DUSP10 (11751237_a_at) / RFU ID3 (11757404_x_at) / Fold change /veh ID3 (11757404_x_at) / RFU PLEKHG5 (11737974_s_at) / Fold change /veh PLEKHG5 (11737974_s_at) / RFU LRRC4B (11730491_at) / Fold change /veh LRRC4B (11730491_at) / RFU GIMAP4 (11747438_a_at) / Fold change /veh GIMAP4 (11747438_a_at) / RFU KRT8 (11758183_x_at) / Fold change /veh KRT8 (11758183_x_at) / RFU CNN1 (11734310_a_at) / Fold change /veh CNN1 (11734310_a_at) / RFU VPS37D (11726825_at) / Fold change /veh VPS37D (11726825_at) / RFU C10orf10 (11716522_x_at) / Fold change /veh C10orf10 (11716522_x_at) / RFU KIR2DL2 /// KIR2DL4 /// KIR2DL5A /// KIR2DL5B /// KIR2DS1 /// KIR2DS2 /// KIR2DS3 /// KIR2DS4 /// KIR3DL3 /// KIR3DL3 /// KIR3DS1 (11738374_at) / Fold change /veh KIR2DL2 /// KIR2DL4 /// KIR2DL5A /// KIR2DL5B /// KIR2DS1 /// KIR2DS2 /// KIR2DS3 /// KIR2DS4 /// KIR3DL3 /// KIR3DL3 /// KIR3DS1 (11738374_at) / RFU C1QL1 (11718748_at) / Fold change /veh C1QL1 (11718748_at) / RFU TMPRSS4 (11747572_a_at) / Fold change /veh TMPRSS4 (11747572_a_at) / RFU HAMP (11756126_x_at) / Fold change /veh HAMP (11756126_x_at) / RFU RNFT2 (11725882_a_at) / Fold change /veh RNFT2 (11725882_a_at) / RFU NR4A2 (11747474_a_at) / Fold change /veh NR4A2 (11747474_a_at) / RFU ABCC12 (11746883_a_at) / Fold change /veh ABCC12 (11746883_a_at) / RFU TMEM136 (11760407_x_at) / Fold change /veh TMEM136 (11760407_x_at) / RFU CLDN22 /// WWC2 (11732394_at) / Fold change /veh CLDN22 /// WWC2 (11732394_at) / RFU HLA-DPB1 (11760878_x_at) / Fold change /veh HLA-DPB1 (11760878_x_at) / RFU SPINT1 (11716480_a_at) / Fold change /veh SPINT1 (11716480_a_at) / RFU GAP43 (11754022_s_at) / Fold change /veh GAP43 (11754022_s_at) / RFU A4GNT (11735810_at) / Fold change /veh A4GNT (11735810_at) / RFU PRB3 (11715151_x_at) / Fold change /veh PRB3 (11715151_x_at) / RFU TUBB4B (11761932_at) / Fold change /veh TUBB4B (11761932_at) / RFU CAPN14 (11732068_a_at) / Fold change /veh CAPN14 (11732068_a_at) / RFU TMCC2 (11721928_a_at) / Fold change /veh TMCC2 (11721928_a_at) / RFU IRGQ (11745062_a_at) / Fold change /veh IRGQ (11745062_a_at) / RFU FAM174B (11720279_a_at) / Fold change /veh FAM174B (11720279_a_at) / RFU TMPRSS4 (11748680_a_at) / Fold change /veh TMPRSS4 (11748680_a_at) / RFU FAM212B (11763350_a_at) / Fold change /veh FAM212B (11763350_a_at) / RFU PLEKHG5 (11743358_a_at) / Fold change /veh PLEKHG5 (11743358_a_at) / RFU ZSCAN30 (11745921_a_at) / Fold change /veh ZSCAN30 (11745921_a_at) / RFU CMKLR1 (11741424_a_at) / Fold change /veh CMKLR1 (11741424_a_at) / RFU LOC101060620 /// MAPK8IP1 (11723275_at) / Fold change /veh LOC101060620 /// MAPK8IP1 (11723275_at) / RFU SPTSSB (11747773_x_at) / Fold change /veh SPTSSB (11747773_x_at) / RFU PRSS12 (11739890_at) / Fold change /veh PRSS12 (11739890_at) / RFU BIN1 (11741810_x_at) / Fold change /veh BIN1 (11741810_x_at) / RFU WNT11 (11732464_a_at) / Fold change /veh WNT11 (11732464_a_at) / RFU C10orf10 (11716521_a_at) / Fold change /veh C10orf10 (11716521_a_at) / RFU C5orf56 (11738089_at) / Fold change /veh C5orf56 (11738089_at) / RFU CYB561 (11721691_x_at) / Fold change /veh CYB561 (11721691_x_at) / RFU ANKRD19P (11752326_a_at) / Fold change /veh ANKRD19P (11752326_a_at) / RFU OR2T12 /// OR2T33 /// OR2T8 (11738714_s_at) / Fold change /veh OR2T12 /// OR2T33 /// OR2T8 (11738714_s_at) / RFU VCAN (11748164_a_at) / Fold change /veh VCAN (11748164_a_at) / RFU JSRP1 (11732532_at) / Fold change /veh JSRP1 (11732532_at) / RFU KRTAP10-11 (11738290_x_at) / Fold change /veh KRTAP10-11 (11738290_x_at) / RFU MYO3A (11730013_a_at) / Fold change /veh MYO3A (11730013_a_at) / RFU EBF3 (11725865_a_at) / Fold change /veh EBF3 (11725865_a_at) / RFU CAMK2N1 (11719241_x_at) / Fold change /veh CAMK2N1 (11719241_x_at) / RFU C5orf56 (11738088_a_at) / Fold change /veh C5orf56 (11738088_a_at) / RFU OLFML3 (11715873_a_at) / Fold change /veh OLFML3 (11715873_a_at) / RFU LOC100653217 /// NTM (11731650_a_at) / Fold change /veh LOC100653217 /// NTM (11731650_a_at) / RFU MAPK11 (11762145_a_at) / Fold change /veh MAPK11 (11762145_a_at) / RFU FIZ1 (11724087_x_at) / Fold change /veh FIZ1 (11724087_x_at) / RFU OASL (11726364_x_at) / Fold change /veh OASL (11726364_x_at) / RFU SOX15 (11748057_x_at) / Fold change /veh SOX15 (11748057_x_at) / RFU CD79A (11719716_a_at) / Fold change /veh CD79A (11719716_a_at) / RFU HIST1H1D (11736915_at) / Fold change /veh HIST1H1D (11736915_at) / RFU CASKIN2 (11723855_a_at) / Fold change /veh CASKIN2 (11723855_a_at) / RFU LOC730098 (11760151_x_at) / Fold change /veh LOC730098 (11760151_x_at) / RFU OR4N2 (11742367_at) / Fold change /veh OR4N2 (11742367_at) / RFU PRRT2 (11749266_a_at) / Fold change /veh PRRT2 (11749266_a_at) / RFU SNX32 (11753110_a_at) / Fold change /veh SNX32 (11753110_a_at) / RFU CDHR5 (11726645_a_at) / Fold change /veh CDHR5 (11726645_a_at) / RFU RCAN1 (11760418_a_at) / Fold change /veh RCAN1 (11760418_a_at) / RFU FAM167A (11723789_a_at) / Fold change /veh FAM167A (11723789_a_at) / RFU FAM26E (11764081_at) / Fold change /veh FAM26E (11764081_at) / RFU ISYNA1 (11749810_s_at) / Fold change /veh ISYNA1 (11749810_s_at) / RFU ACY1 (11761880_at) / Fold change /veh ACY1 (11761880_at) / RFU 11764098_at / Fold change /veh 11764098_at / RFU SAMD14 (11745864_x_at) / Fold change /veh SAMD14 (11745864_x_at) / RFU NPB (11741838_a_at) / Fold change /veh NPB (11741838_a_at) / RFU TMPRSS6 (11731388_a_at) / Fold change /veh TMPRSS6 (11731388_a_at) / RFU KRTAP10-2 (11738614_at) / Fold change /veh KRTAP10-2 (11738614_at) / RFU ARHGAP8 /// PRR5-ARHGAP8 (11727945_x_at) / Fold change /veh ARHGAP8 /// PRR5-ARHGAP8 (11727945_x_at) / RFU KRTAP5-7 /// NADSYN1 (11734609_at) / Fold change /veh KRTAP5-7 /// NADSYN1 (11734609_at) / RFU RASL12 (11751679_a_at) / Fold change /veh RASL12 (11751679_a_at) / RFU CDKN2B (11736163_a_at) / Fold change /veh CDKN2B (11736163_a_at) / RFU PRF1 (11729649_at) / Fold change /veh PRF1 (11729649_at) / RFU, ZNF638 /// ZNF638-IT1 / Fold change vs veh, ZNF638 /// ZNF638-IT1 / RFU, PANK3 / Fold change vs veh, PANK3 / RFU, SH3YL1 / Fold change vs veh, SH3YL1 / RFU, ZEB2 / Fold change vs veh, ZEB2 / RFU, NRIP1 / Fold change vs veh, NRIP1 / RFU, PTTG1IP / Fold change vs veh, PTTG1IP / RFU, CAPN2 / Fold change vs veh, CAPN2 / RFU, MED14 / Fold change vs veh, MED14 / RFU, SNORA58 / Fold change vs veh, SNORA58 / RFU, C1orf63 / Fold change vs veh, C1orf63 / RFU, LRRFIP1 / Fold change vs veh, LRRFIP1 / RFU, NDUFAF7 / Fold change vs veh, NDUFAF7 / RFU, SLC12A2 / Fold change vs veh, SLC12A2 / RFU, IBTK / Fold change vs veh, IBTK / RFU, ESF1 / Fold change vs veh, ESF1 / Fold change vs veh, TMEM50B / RFU, TAOK1 / Fold change vs veh, TAOK1 / RFU, ACBD3 / Fold change vs veh, ACBD3 / RFU, TMA16 / Fold change vs veh, TMA16 / RFU, RWDD3 / Fold change vs veh, RWDD3 / RFU, BCAT1 / Fold change vs veh, BCAT1 / RFU, EDEM3 / Fold change vs veh, EDEM3 / RFU, TMEM33 / Fold change vs veh, TMEM33 / RFU, WDR75 / Fold change vs veh, WDR75 / RFU, AHCTF1 / Fold change vs veh, AHCTF1 / RFU, TFRC / Fold change vs veh, TFRC / RFU, ZDHHC17 / Fold change vs veh, ZDHHC17 / RFU, NOM1 / Fold change vs veh, NOM1 / RFU, ARL8B / Fold change vs veh, ARL8B / RFU, ZBTB11 / Fold change vs veh, ZBTB11 / RFU, TAMM41 / Fold change vs veh, TAMM41 / RFU, KIAA1704 /// LOC100996395 / Fold change vs veh, KIAA1704 /// LOC100996395 / RFU, ING1 / Fold change vs veh, ING1 / RFU, TRMT61B / Fold change vs veh, TRMT61B / RFU, FUBP3 / Fold change vs veh, FUBP3 / RFU, TP53 / Fold change vs veh, TP53 / RFU, TNKS2 / Fold change vs veh, TNKS2 / RFU, ZFP14 / Fold change vs veh, ZFP14 / RFU, ACTR2 / Fold change vs veh, ACTR2 / RFU, PPP3R1 / Fold change vs veh, PPP3R1 / RFU, PIK3R1 / Fold change vs veh, PIK3R1 / RFU, HNRNPA1 / Fold change vs veh, HNRNPA1 / RFU, RNF170 / Fold change vs veh, RNF170 / RFU, ZNF28 / Fold change vs veh, ZNF28 / RFU, RNGTT / Fold change vs veh, RNGTT / RFU, OGT / Fold change vs veh, OGT / RFU, BRD1 / Fold change vs veh, BRD1 / RFU, MARS / Fold change vs veh, MARS / RFU, ZNF655 / Fold change vs veh, ZNF655 / RFU, FAHD1 / Fold change vs veh, FAHD1 / RFU, BDP1 / Fold change vs veh, BDP1 / RFU, LRRCC1 / Fold change vs veh, LRRCC1 / RFU, ARID1A / Fold change vs veh, ARID1A / RFU, ZNF146 / Fold change vs veh, ZNF146 / RFU, ZNF330 / Fold change vs veh, ZNF330 / RFU, GPN3 / Fold change vs veh, GPN3 / RFU, C9orf123 / Fold change vs veh, C9orf123 / RFU, N4BP2L2 / Fold change vs veh, N4BP2L2 / RFU, ARFIP1 / Fold change vs veh, ARFIP1 / RFU, FAM179B / Fold change vs veh, FAM179B / RFU, BCL10 / Fold change vs veh, BCL10 / RFU, UHRF1BP1L / Fold change vs veh, UHRF1BP1L / RFU, BET1 / Fold change vs veh, BET1 / RFU, CNOT2 / Fold change vs veh, CNOT2 / RFU, ZNF268 / Fold change vs veh, ZNF268 / Fold change vs veh, ZNF507 / RFU, DGCR2 / Fold change vs veh, DGCR2 / RFU, WDSUB1 / Fold change vs veh, WDSUB1 / Fold change vs veh, HSP90B1 /// MIR3652 / RFU, ADSS / Fold change vs veh, ADSS / RFU, GK / Fold change vs veh, GK / RFU, ZNF148 / Fold change vs veh, ZNF148 / RFU, TAF9 / Fold change vs veh, TAF9 / RFU, SLC1A5 / Fold change vs veh, SLC1A5 / RFU, SLMO2 / Fold change vs veh, SLMO2 / RFU, ABCC4 / Fold change vs veh, ABCC4 / RFU, LOC101060439 /// RAP1B / Fold change vs veh, LOC101060439 /// RAP1B / RFU, RFX7 / Fold change vs veh, RFX7 / RFU, GTPBP10 / Fold change vs veh, GTPBP10 / RFU, CNEP1R1 / Fold change vs veh, CNEP1R1 / RFU, BIVM-ERCC5 /// ERCC5 / Fold change vs veh, BIVM-ERCC5 /// ERCC5 / RFU, ILF3 / Fold change vs veh, ILF3 / RFU 11762660_at / Fold change /veh 11762660_at / RFU VCAN (11757783_s_at) / Fold change /veh VCAN (11757783_s_at) / RFU DDX43 (11728927_at) / Fold change /veh DDX43 (11728927_at) / RFU KRT8 (11758188_x_at) / Fold change /veh KRT8 (11758188_x_at) / RFU NKD1 (11759106_at) / Fold change /veh NKD1 (11759106_at) / RFU SRD5A1 (11742802_a_at) / Fold change /veh SRD5A1 (11742802_a_at) / RFU TPSAB1 /// TPSB2 (11721975_s_at) / Fold change /veh TPSAB1 /// TPSB2 (11721975_s_at) / RFU GSTM3 (11746129_a_at) / Fold change /veh GSTM3 (11746129_a_at) / RFU IL23R (11737362_x_at) / Fold change /veh IL23R (11737362_x_at) / RFU TMEM51 (11727254_a_at) / Fold change /veh TMEM51 (11727254_a_at) / RFU PIWIL2 (11732686_x_at) / Fold change /veh PIWIL2 (11732686_x_at) / RFU ORM1 (11744905_x_at) / Fold change /veh ORM1 (11744905_x_at) / RFU CCDC152 (11743942_at) / Fold change /veh CCDC152 (11743942_at) / RFU ECM1 (11717891_a_at) / Fold change /veh ECM1 (11717891_a_at) / RFU IL23R (11748794_a_at) / Fold change /veh IL23R (11748794_a_at) / RFU TNFAIP8L3 (11732012_x_at) / Fold change /veh TNFAIP8L3 (11732012_x_at) / RFU MBOAT4 (11741988_at) / Fold change /veh MBOAT4 (11741988_at) / RFU 11764193_at / Fold change /veh 11764193_at / RFU TMEM53 (11763286_at) / Fold change /veh TMEM53 (11763286_at) / RFU MAGEB2 (11727129_at) / Fold change /veh MAGEB2 (11727129_at) / RFU TMEM200A (11744735_a_at) / Fold change /veh TMEM200A (11744735_a_at) / RFU CCDC152 (11751479_a_at) / Fold change /veh CCDC152 (11751479_a_at) / RFU FAM211A (11726209_a_at) / Fold change /veh FAM211A (11726209_a_at) / RFU RGS16 (11746705_a_at) / Fold change /veh RGS16 (11746705_a_at) / RFU VCAN (11755009_s_at) / Fold change /veh VCAN (11755009_s_at) / RFU RHOB (11743442_s_at) / Fold change /veh RHOB (11743442_s_at) / RFU RGS16 (11720943_a_at) / Fold change /veh RGS16 (11720943_a_at) / RFU RGS16 (11720944_at) / Fold change /veh RGS16 (11720944_at) / RFU, VPS4B / Fold change vs veh, VPS4B / RFU, CREB1 / Fold change vs veh, CREB1 / RFU, DNAJC13 / Fold change vs veh, DNAJC13 / RFU, GNAQ / Fold change vs veh, GNAQ / RFU, CDK5R1 / Fold change vs veh, CDK5R1 / RFU, ZRANB3 / Fold change vs veh, ZRANB3 / RFU, CUL4A / Fold change vs veh, CUL4A / RFU, CCNY / Fold change vs veh, CCNY / RFU, UFL1 / Fold change vs veh, UFL1 / RFU, COG3 / Fold change vs veh, COG3 / RFU, DIAPH2 / Fold change vs veh, DIAPH2 / RFU, SKA2 / Fold change vs veh, SKA2 / RFU, AFF3 / Fold change vs veh, AFF3 / RFU, LMF1 / Fold change vs veh, LMF1 / RFU, IPO11 / Fold change vs veh, IPO11 / RFU, DFFB / Fold change vs veh, DFFB / RFU, FOXP1 / Fold change vs veh, FOXP1 / RFU, CARD8 / Fold change vs veh, CARD8 / RFU, STRN3 / Fold change vs veh, STRN3 / RFU, ADK / Fold change vs veh, ADK / RFU, RASSF2 / Fold change vs veh, RASSF2 / RFU, WIPF1 / Fold change vs veh, WIPF1 / RFU, LARP1B / Fold change vs veh, LARP1B / RFU, RASA1 / Fold change vs veh, RASA1 / RFU, RB1 / Fold change vs veh, RB1 / RFU, PPFIA1 / Fold change vs veh, PPFIA1 / RFU, MAT2A / Fold change vs veh, MAT2A / RFU, CCT5 / Fold change vs veh, CCT5 / RFU, WDR92 / Fold change vs veh, WDR92 / RFU, CUX1 / Fold change vs veh, CUX1 / RFU, TTC7A / Fold change vs veh, TTC7A / RFU, TMEM135 / Fold change vs veh, TMEM135 / RFU, DEPTOR / Fold change vs veh, DEPTOR / RFU, CPM / Fold change vs veh, CPM / RFU, DNAJB6 / Fold change vs veh, DNAJB6 / RFU, CACNA2D3 / Fold change vs veh, CACNA2D3 / RFU, DTX4 / Fold change vs veh, DTX4 / RFU, TFCP2 / Fold change vs veh, TFCP2 / RFU, GMCL1 /// GMCL1P1 / Fold change vs veh, GMCL1 /// GMCL1P1 / RFU, AEBP2 / Fold change vs veh, AEBP2 / RFU, SNHG1 /// SNORD22 /// SNORD25 /// SNORD26 /// SNORD27 /// SNORD28 /// SNORD29 /// SNORD31 / Fold change vs veh, SNHG1 /// SNORD22 /// SNORD25 /// SNORD26 /// SNORD27 /// SNORD28 /// SNORD29 /// SNORD31 / Fold change (Aza/veh), C12orf56 (ProbeSet 11735607_a_at) / Fold change (ACY-1035/veh), C12orf56 (ProbeSet 11735607_a_at) / Fold change (Aza/veh), FGFR1OP (ProbeSet 11751329_s_at) / Fold change (ACY-1035/veh), FGFR1OP (ProbeSet 11751329_s_at) / Fold change (Aza/veh), VPS36 (ProbeSet 11739960_a_at) / Fold change (ACY-1035/veh), VPS36 (ProbeSet 11739960_a_at) / RFU SYPL1 (11715823_x_at) / Fold change /veh SYPL1 (11715823_x_at) / RFU IGFBP7 (11715501_s_at) / Fold change /veh IGFBP7 (11715501_s_at) / RFU REEP3 (11722064_at) / Fold change /veh REEP3 (11722064_at) / RFU IGLL1 (11728026_x_at) / Fold change /veh IGLL1 (11728026_x_at): dose or concentration left out as unconfirmed. To be noted: ProbeSet 11724763_s_at; LIST D.

`Nc1ncn([C@@H]2O[C@H](CO)[C@@H](O)[C@H]2O)c(=O)n1` [azacitidine]: the “Fold change vs veh, DEPTOR” value came to 0.65.
